Assay results published in US11613527B2, “Enzyme inhibitors” (KalVista Pharmaceuticals Limited, priority 2019, dated 2023).
≈ marks a conversion by molar mass, not a printed value.

Experiments:
Human plasma kallikrein = Human plasma kallikrein (Homo sapiens (Human), UniProt P03952); test: Determination of the IC50 for plasma kallikrein (fluorogenic substrate H-DPro-Phe-Arg-AFC); format: biochemical; settings: class symbols A-D, read-out: IC50 (human PKal)
Method in brief: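 Enzyme from a commercial source was incubated at 25° C. with H-DPro-Phe-Arg-AFC substrate and a range of test compound concentrations. Residual activity was taken as the initial reaction rate, followed by absorbance change at 410 nm, and IC50 values were derived from it.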

Human KLK1 = Human KLK1 (Homo sapiens (Human), UniProt P06870); test: Determination of the IC50 for KLK1 (fluorogenic substrate H-DVal-Leu-Arg-AFC); format: biochemical
Method in brief: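 Human KLK1 incubated at 25° C. with fluorogenic substrate H-DVal-Leu-Arg-AFC and a range of test compound concentrations. Residual activity taken as initial reaction rate from absorbance change at 410 nm; IC50 derived from these rates.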

Human FXIa = Human FXIa (Homo sapiens (Human), UniProt P03951); test: Determination of the % inhibition for FXIa (fluorogenic substrate Z-Gly-Pro-Arg-AFC; 40 μM or IC50); format: biochemical
Method in brief: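 Human FXIa incubated at 25 °C with fluorogenic substrate Z-Gly-Pro-Arg-AFC and test compound at 40 μM for % inhibition, or a concentration series for IC50. Residual activity taken as initial rate from absorbance change at 410 nm.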

[1] = Solubility after 24 hrs in Fasted State Simulated Intestinal Fluid (FaSSIF); format: physicochemical; settings: Fasted State Simulated Intestinal Fluid (FaSSIF), thermodynamic from solid, 24 hrs at 37° C., nominal concentration 1 mg/mL (as free base)
Method in brief: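 Compound at nominal 1 mg/mL (as free base) in freshly prepared FaSSIF, shaken 24 h at 37 °C, ~500 rpm. After centrifugation at 15,000 g for 10 min at 37 °C, dissolved concentration measured by LCMS.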

[2] = Pharmacokinetics following a single oral dose in male Sprague-Dawley rats; format: in vivo; settings: rat, nominal 5 mg/kg in 10% DMSO/10% cremophor/80% SWFI, plasma
Protocol: Pharmacokinetic studies of the compounds in Table 14 were performed to assess the pharmacokinetics following a single oral dose in male Sprague-Dawley rats. Two rats were given a single po dose of 5 mL/kg of a nominal 1 mg/mL (5 mg/kg) composition of test compound in 10% DMSO/10% cremophor/80% SWFI vehicle. Following dosing, blood samples were collected over a period of […]. Sample times were 5, 15 and 30 minutes then 1, 2, 4, 6, 8 and 12 hours. Following collection, blood samples were centrifuged and the plasma fraction analysed for concentration of test compound by LCMS.

Human plasma kallikrein, sequence (P03952 391-638): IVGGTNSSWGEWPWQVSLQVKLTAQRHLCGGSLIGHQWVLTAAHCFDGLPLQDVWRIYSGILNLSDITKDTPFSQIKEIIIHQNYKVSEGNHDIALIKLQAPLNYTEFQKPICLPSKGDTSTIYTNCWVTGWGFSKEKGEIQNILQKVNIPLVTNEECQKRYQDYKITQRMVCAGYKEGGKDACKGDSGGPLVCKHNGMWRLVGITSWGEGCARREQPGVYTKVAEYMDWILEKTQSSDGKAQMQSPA
Human plasma kallikrein, sequence (P03952 20-390 partner): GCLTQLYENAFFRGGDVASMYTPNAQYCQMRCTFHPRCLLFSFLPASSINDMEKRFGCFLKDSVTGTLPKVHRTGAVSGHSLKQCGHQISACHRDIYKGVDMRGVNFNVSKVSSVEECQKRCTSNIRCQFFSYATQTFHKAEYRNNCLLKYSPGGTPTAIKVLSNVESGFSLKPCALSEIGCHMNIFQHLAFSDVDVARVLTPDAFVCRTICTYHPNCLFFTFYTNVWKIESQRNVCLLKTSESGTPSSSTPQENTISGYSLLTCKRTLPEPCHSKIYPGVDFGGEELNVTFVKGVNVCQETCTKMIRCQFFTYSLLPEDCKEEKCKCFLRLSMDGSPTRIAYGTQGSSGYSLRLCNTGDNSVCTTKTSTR
Human FXIa, sequence (P03951 388-625): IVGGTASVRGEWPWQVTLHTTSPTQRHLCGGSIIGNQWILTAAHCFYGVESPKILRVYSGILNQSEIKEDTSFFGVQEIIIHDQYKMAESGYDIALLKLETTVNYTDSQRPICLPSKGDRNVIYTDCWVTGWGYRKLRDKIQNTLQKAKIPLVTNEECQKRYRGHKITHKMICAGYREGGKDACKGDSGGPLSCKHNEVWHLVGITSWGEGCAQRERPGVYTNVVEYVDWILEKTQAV
Human FXIa, sequence (P03951 19-387 partner): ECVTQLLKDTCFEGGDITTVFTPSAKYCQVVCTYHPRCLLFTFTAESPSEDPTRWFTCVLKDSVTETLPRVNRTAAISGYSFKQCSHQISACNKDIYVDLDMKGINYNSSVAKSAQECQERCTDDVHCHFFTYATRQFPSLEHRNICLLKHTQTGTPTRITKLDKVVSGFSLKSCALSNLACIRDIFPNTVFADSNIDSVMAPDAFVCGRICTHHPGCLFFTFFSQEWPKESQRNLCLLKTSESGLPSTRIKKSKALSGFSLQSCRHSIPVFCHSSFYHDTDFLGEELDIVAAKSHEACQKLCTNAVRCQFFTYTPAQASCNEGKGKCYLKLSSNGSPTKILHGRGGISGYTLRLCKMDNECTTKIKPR
Human KLK1, sequence (P06870 25-262): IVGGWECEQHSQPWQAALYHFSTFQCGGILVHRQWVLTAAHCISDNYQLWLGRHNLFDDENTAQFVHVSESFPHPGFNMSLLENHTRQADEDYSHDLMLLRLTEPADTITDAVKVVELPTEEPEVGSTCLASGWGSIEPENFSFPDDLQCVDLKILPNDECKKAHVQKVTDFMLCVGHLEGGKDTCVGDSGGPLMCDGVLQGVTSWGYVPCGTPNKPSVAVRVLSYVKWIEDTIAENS

IC50 (Human plasma kallikrein) [µM]	IC50 (Human KLK1) [µM]	IC50 (Human FXIa) [µM]	solubility at 24 h [1] [µg/mL]	Cmax [2] [ng/mL]	Structure (SMILES)
< 0.01	> 40	> 40	930 (≈ 1630 µM)	88	COCc1nn(Cc2ccc3c(c2)CN(C)CC3)cc1C(=O)NCc1c(-n2cc(C(F)F)nn2)ccc(OC)c1F [Example 1, N-({6-[4-(difluoromethyl)-1,2,3-triazol-1-yl]-2-fluoro-3-methoxyphenyl}methyl)-3-(methoxymethyl)-1-[(2-methyl-3,4-dihydro-1H-isoquinolin-7-yl)methyl]pyrazole-4-carboxamide]
< 0.01	> 40	> 40	710 (≈ 1330 µM)	134	COCc1nn(Cc2ccc3c(c2)CN(C)CC3)cc1C(=O)NCc1c(-n2cc(C)nn2)ccc(OC)c1F [Example 2, N-{[2-Fluoro-3-methoxy-6-(4-methyl-1,2,3-triazol-1-yl)phenyl]methyl}-3-(methoxymethyl)-1-[(2-methyl-3,4-dihydro-1H-isoquinolin-7-yl)methyl]pyrazole-4-carboxamide]
< 0.01	> 40	> 40	860 (≈ 1460 µM)	88	COCc1nn(Cc2ccc3c(c2)CN(C)CC3)cc1C(=O)NCc1c(-n2cnc(C(F)(F)F)n2)ccc(OC)c1F [Example 13, N-({2-fluoro-3-methoxy-6-[3-(trifluoromethyl)-1,2,4-triazol-1-yl]phenyl}methyl)-3-(methoxymethyl)-1-[(2-methyl-3,4-dihydro-1H-isoquinolin-7-yl)methyl]pyrazole-4-carboxamide]
< 0.01	> 40	> 40	> 1000	78	COCc1nn(Cc2ccc3c(c2)CN(C)CC3)cc1C(=O)NCc1c(-n2cnc(C(F)F)n2)ccc(OC)c1F [Example 15, N-({6-[3-(difluoromethyl)-1,2,4-triazol-1-yl]-2-fluoro-3-methoxyphenyl}methyl)-3-(methoxymethyl)-1-[(2-methyl-3,4-dihydro-1H-isoquinolin-7-yl)methyl]pyrazole-4-carboxamide]
< 0.01	> 40	> 40	870 (≈ 1460 µM)	20	COCc1nn(Cc2ccc3c(c2)CN(C(C)C)CC3)cc1C(=O)NCc1c(-n2cnc(C(F)F)n2)ccc(OC)c1F [Example 23, N-({6-[3-(difluoromethyl)-1,2,4-triazol-1-yl]-2-fluoro-3-methoxyphenyl}methyl)-1-[(2-isopropyl-3,4-dihydro-1H-isoquinolin-7-yl)methyl]-3-(methoxymethyl)pyrazole-4-carboxamide]
< 0.01	> 40	23.8	730 (≈ 1280 µM)	24	COCc1nn(Cc2ccc3c(c2)CN(C(C)C)CC3)cc1C(=O)NCc1c(-n2ccc(C#N)n2)ccc(OC)c1F [Example 24, N-{[6-(3-cyanopyrazol-1-yl)-2-fluoro-3-methoxyphenyl]methyl}-1-[(2-isopropyl-3,4-dihydro-1H-isoquinolin-7-yl)methyl]-3-(methoxymethyl)pyrazole-4-carboxamide]
< 0.01	> 40	> 40	> 1000	38	COCc1nn(Cc2ccc3c(c2)CCN(C(C)C)C3)cc1C(=O)NCc1c(-n2cc(C)nn2)ccc(OC)c1F [Example 37, N-{[2-fluoro-3-methoxy-6-(4-methyl-1,2,3-triazol-1-yl)phenyl]methyl}-1-[(2-isopropyl-3,4-dihydro-1H-isoquinolin-6-yl)methyl]-3-(methoxymethyl)pyrazole-4-carboxamide]
< 0.01	> 40	> 40	740 (≈ 1350 µM)	51	CCN1CCc2cc(Cn3cc(C(=O)NCc4c(-n5cc(C)nn5)ccc(OC)c4F)c(COC)n3)ccc2C1 [Example 38, 1-[(2-ethyl-3,4-dihydro-1H-isoquinolin-6-yl)methyl]-N-{[2-fluoro-3-methoxy-6-(4-methyl-1,2,3-triazol-1-yl)phenyl]methyl}-3-(methoxymethyl)pyrazole-4-carboxamide]
< 0.01	> 40	> 40	> 1000	34	COCc1nn(Cc2ccc3c(c2)CCN(C(C)C)C3)cc1C(=O)NCc1c(-n2ccc(C#N)n2)ccc(OC)c1F [Example 46, N-{[6-(3-cyanopyrazol-1-yl)-2-fluoro-3-methoxyphenyl]methyl}-1-[(2-isopropyl-3,4-dihydro-1H-isoquinolin-6-yl)methyl]-3-(methoxymethyl)pyrazole-4-carboxamide]
< 0.01	> 4	> 4	820 (≈ 1580 µM)	154	COCc1nn(Cc2ccc3c(c2)CN(C)C3)cc1C(=O)NCc1c(-n2cc(C)nn2)ccc(OC)c1F [Example 54, N-{[2-fluoro-3-methoxy-6-(4-methyl-1,2,3-triazol-1-yl)phenyl]methyl}-3-(methoxymethyl)-1-[(2-methyl-1,3-dihydroisoindol-5-yl)methyl]pyrazole-4-carboxamide]
			> 1000	136	COCc1nn(Cc2ccc3c(c2)CN(C(C)C)C3)cc1C(=O)NCc1c(-n2cc(C)nn2)ccc(OC)c1F [Example 55, N-{[2-Fluoro-3-methoxy-6-(4-methyl-1,2,3-triazol-1-yl)phenyl]methyl}-1-[(2-isopropyl-1,3-dihydroisoindol-5-yl)methyl]-3-(methoxymethyl)pyrazole-4-carboxamide]
< 0.01	> 40	> 40	880 (≈ 1570 µM)	63	COCc1nn(Cc2ccc3c(c2)CN(C)CC32CC2)cc1C(=O)NCc1c(-n2cc(C)nn2)ccc(OC)c1F [Example 126, N-{[2-fluoro-3-methoxy-6-(4-methyl-1,2,3-triazol-1-yl)phenyl]methyl}-3-(methoxymethyl)-1-{2′-methyl-1′,3′-dihydrospiro[cyclopropane-1,4′-isoquinoline]-7′-ylmethyl}pyrazole-4-carboxamide]
< 0.01	> 40	> 40	810 (≈ 1480 µM)	9	COCc1nn(Cc2ccc3c(c2)CNCC32CC2)cc1C(=O)NCc1c(-n2cc(C)nn2)ccc(OC)c1F [Example 127, 1-{2′,3′-dihydro-1′H-spiro[cyclopropane-1,4′-isoquinoline]-7′-ylmethyl}-N-{[2-fluoro-3-methoxy-6-(4-methyl-1,2,3-triazol-1-yl)phenyl]methyl}-3-(methoxymethyl)pyrazole-4-carboxamide]
< 0.01	> 40	0.218	20 (≈ 38.7 µM)		COCc1nn(Cc2ccc3nc(C)ccc3c2)cc1C(=O)NCc1c(-n2cnnn2)ccc(OC)c1F [RC2, N-{[2-fluoro-3-methoxy-6-(1,2,3,4-tetrazol-1-yl)phenyl]methyl}-3-(methoxymethyl)-1-[(2-methylquinolin-6-yl)methyl]pyrazole-4-carboxamide, reference compound]
< 0.01	> 40	1.92	20 (≈ 39.8 µM)		COCc1nn(Cc2ccc3ncccc3c2)cc1C(=O)NCc1c(-n2cnnn2)ccc(OC)c1F [RC3, N-{[2-fluoro-3-methoxy-6-(1,2,3,4-tetrazol-1-yl)phenyl]methyl}-3-(methoxymethyl)-1-(quinolin-6-ylmethyl)pyrazole-4-carboxamide, reference compound]
< 0.01	> 40	0.559	10 (≈ 17.5 µM)		COCc1nn(Cc2cnc(N3CCCC3)nc2)cc1C(=O)NCc1c(-n2cc(C(F)F)nn2)ccc(OC)c1F [RC7, N-({6-[4-(difluoromethyl)-1,2,3-triazol-1-yl]-2-fluoro-3-methoxyphenyl}methyl)-3-(methoxymethyl)-1-{[2-(pyrrolidin-1-yl)pyrimidin-5-yl]methyl}pyrazole-4-carboxamide, reference compound]
